Source: patent publication US8513440B2, “Compositions and methods comprising analogues of radicicol A” (Universite de Strasbourg, priority 2007, dated 2013)
Entries after “also recorded” stand apart in the source; their conditions may differ. One block for each compound: values may come before it.

Legend:
[1] = target: T1, EPHB4 (Homo sapiens, UniProt P54760); assay: radiometric protein kinase assay (33PanQinase Activity Assay); format: biochemical; conditions: panel of 24 kinases, 1 μM ATP, read-out: Inhibition of Kinases IC50
T1 construct: made in house; host or cells: Sf9 insect cells (baculovirus)
T1 sequence (P54760 16-987): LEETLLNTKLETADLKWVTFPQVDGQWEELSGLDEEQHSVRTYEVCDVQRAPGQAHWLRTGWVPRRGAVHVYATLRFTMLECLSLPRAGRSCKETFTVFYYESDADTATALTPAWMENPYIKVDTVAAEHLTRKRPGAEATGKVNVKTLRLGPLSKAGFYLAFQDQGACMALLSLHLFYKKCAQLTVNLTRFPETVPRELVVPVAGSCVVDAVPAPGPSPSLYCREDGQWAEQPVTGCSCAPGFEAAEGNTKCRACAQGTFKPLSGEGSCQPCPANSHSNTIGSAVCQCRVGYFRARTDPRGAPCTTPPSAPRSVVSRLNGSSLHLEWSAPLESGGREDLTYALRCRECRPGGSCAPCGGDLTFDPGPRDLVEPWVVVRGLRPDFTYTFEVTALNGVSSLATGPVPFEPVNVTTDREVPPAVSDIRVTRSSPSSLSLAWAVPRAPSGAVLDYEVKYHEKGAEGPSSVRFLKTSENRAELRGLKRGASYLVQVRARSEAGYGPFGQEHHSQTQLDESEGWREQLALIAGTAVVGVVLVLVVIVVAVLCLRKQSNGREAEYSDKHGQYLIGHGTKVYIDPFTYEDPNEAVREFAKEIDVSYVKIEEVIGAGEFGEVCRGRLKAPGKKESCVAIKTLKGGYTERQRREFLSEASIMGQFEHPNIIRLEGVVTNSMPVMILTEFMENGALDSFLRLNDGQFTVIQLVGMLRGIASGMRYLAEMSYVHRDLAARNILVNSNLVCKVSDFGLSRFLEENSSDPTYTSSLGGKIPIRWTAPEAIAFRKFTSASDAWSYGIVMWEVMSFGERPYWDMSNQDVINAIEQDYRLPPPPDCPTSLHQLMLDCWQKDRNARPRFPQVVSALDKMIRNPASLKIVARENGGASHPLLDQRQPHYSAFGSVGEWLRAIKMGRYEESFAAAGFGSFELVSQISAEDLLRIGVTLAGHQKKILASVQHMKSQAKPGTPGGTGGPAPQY
Protocol: (§1) Radicicol A (1) and analogues 3 and 31 were tested for its inhibition in a panel of 24 kinase (AKT1, ARKS, Aurora-A, Aurora-B, B-RAF-VE, CDK2/CycA, CDK4/CycD1, CK2-α1, FAK, EPHB4, ERB2, EGF-R, IGF1-R, SRC, VEGF-R2, VEGF-R3, FLT3, INS-R, MET, PDGFR-β, PLK1, SAK, TIE2, COT) at 10 μM using the procedure described below.
(§2) All protein kinases were expressed in Sf9 insect cells as human recombinant GST-fusion proteins or His-tagged proteins by means of the baculovirus expression system. Kinases were purified by affinity chromatography using either GSH-agarose (Sigma) or Ni-NTH-agarose (Qiagen). The purity of each kinase was checked by SDS-PAGE/silver staining and the identity of each kinase was verified by western blot analysis with kinase specific antibodies or by mass spectroscopy.
(§3) A radiometric protein kinase assay (^33PanQinase® Activity Assay) was used for measuring the kinase activity of the 24 protein kinases. All kinase assays were performed in 96-well FIashPlates™ from Perkin Elmer (Boston, Mass., USA) in a 50 μl reaction volume. […]
(§4) The reaction cocktails were incubated at 30° C. for 80 minutes. […] Incorporation of ^33Pi was determined with a microplate scintillation counter (Microbeta Trilux, Wallac). […]

[2] = target: T2, SRC (Homo sapiens, UniProt P12931); assay: as above; format: biochemical; conditions: panel of 24 kinases, 1 μM ATP, read-out: Inhibition of Kinases IC50
T2 construct: made in house; host or cells: Sf9 insect cells (baculovirus)
Excerpt: as §2
(§5) A radiometric protein kinase assay (^33PanQinase® Activity Assay) was used for measuring the kinase activity of the 24 protein kinases. All kinase assays were performed in 96-well FIashPlates™ from Perkin Elmer (Boston, Mass., USA) in a 50 μl reaction volume. The reaction cocktail was pipetted in 4 steps in the following order: • 20 μl of assay buffer • 5 μl of ATP solution (in H2O) • 5 μl of test compound (in 10% DMSO) • 10 μl of substrate/10 μl of enzyme solution (premixed)
(§6) The assay for all enzymes contained 60 mM HEPES-NaOH, pH 7.5, 3 mM MgCl2, 3 mM MnCl2, 3 μM Na-orthovanadate, 1.2 mM DTT, 50 μg/ml PEG20000, 1 μM [γ-^33P]-ATP (approx. 5×10^05 cpm per well).
as §4

[3] = target: T3, FLT3 (Homo sapiens, UniProt P36888); assay: as above; format: biochemical; conditions: for Inhibition of Kinases IC50 / IC50: panel of 24 kinases, 1 μM ATP; for IC50: read-out: Inhibition of Kinases IC50
T3 construct: made in house; host or cells: Sf9 insect cells (baculovirus)
T3 sequence (P36888 27-993): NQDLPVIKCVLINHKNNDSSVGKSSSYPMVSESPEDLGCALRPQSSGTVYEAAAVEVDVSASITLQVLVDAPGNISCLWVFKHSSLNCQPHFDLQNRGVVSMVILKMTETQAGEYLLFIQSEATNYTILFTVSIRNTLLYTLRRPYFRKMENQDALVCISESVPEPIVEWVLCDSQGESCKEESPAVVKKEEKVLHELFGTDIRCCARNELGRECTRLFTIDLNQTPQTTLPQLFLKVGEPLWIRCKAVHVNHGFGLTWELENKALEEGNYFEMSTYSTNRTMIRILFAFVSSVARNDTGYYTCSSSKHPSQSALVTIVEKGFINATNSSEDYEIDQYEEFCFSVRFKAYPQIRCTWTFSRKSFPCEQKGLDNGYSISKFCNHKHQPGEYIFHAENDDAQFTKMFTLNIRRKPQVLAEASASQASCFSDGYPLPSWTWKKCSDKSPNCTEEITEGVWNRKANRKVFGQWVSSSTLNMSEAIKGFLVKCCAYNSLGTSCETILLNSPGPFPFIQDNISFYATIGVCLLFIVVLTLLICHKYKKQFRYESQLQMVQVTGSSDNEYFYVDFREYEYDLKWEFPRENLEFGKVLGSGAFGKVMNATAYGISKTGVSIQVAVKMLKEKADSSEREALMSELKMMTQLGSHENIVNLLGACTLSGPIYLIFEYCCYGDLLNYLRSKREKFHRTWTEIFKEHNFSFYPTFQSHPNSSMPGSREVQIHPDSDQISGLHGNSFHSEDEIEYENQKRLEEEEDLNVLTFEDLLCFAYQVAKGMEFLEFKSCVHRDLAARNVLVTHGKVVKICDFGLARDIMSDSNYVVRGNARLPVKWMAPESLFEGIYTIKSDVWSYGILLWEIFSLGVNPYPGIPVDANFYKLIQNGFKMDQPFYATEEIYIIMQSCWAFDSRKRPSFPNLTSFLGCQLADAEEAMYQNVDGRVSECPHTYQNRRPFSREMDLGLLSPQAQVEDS
Protocol: as §1, §2, §5, §6
(§7) The reaction cocktails were incubated at 30° C. for 80 minutes. The reaction was stopped with 50 μl of 2% (v/v) H3PO4, plates were aspirated and washed two times with 200 μl of 0.9% (w/v) NaCl or 200 μl H2O. Incorporation of ^33Pi was determined with a microplate scintillation counter (Microbeta Trilux, Wallac). All assays were performed with a BeckmanCoulter/Sagian robotic system.
(§8) Using the same method described above, compound 31 was evaluated in a panel of 127 kinase enzymes.

[4] = target: T4, VEGF-R3 (Homo sapiens, UniProt P35916); assay: as above; format: biochemical; conditions: for Inhibition of Kinases IC50 / IC50: panel of 24 kinases, 1 μM ATP; for IC50: read-out: Inhibition of Kinases IC50
T4 construct: made in house; host or cells: Sf9 insect cells (baculovirus)
T4 sequence (P35916 25-1363): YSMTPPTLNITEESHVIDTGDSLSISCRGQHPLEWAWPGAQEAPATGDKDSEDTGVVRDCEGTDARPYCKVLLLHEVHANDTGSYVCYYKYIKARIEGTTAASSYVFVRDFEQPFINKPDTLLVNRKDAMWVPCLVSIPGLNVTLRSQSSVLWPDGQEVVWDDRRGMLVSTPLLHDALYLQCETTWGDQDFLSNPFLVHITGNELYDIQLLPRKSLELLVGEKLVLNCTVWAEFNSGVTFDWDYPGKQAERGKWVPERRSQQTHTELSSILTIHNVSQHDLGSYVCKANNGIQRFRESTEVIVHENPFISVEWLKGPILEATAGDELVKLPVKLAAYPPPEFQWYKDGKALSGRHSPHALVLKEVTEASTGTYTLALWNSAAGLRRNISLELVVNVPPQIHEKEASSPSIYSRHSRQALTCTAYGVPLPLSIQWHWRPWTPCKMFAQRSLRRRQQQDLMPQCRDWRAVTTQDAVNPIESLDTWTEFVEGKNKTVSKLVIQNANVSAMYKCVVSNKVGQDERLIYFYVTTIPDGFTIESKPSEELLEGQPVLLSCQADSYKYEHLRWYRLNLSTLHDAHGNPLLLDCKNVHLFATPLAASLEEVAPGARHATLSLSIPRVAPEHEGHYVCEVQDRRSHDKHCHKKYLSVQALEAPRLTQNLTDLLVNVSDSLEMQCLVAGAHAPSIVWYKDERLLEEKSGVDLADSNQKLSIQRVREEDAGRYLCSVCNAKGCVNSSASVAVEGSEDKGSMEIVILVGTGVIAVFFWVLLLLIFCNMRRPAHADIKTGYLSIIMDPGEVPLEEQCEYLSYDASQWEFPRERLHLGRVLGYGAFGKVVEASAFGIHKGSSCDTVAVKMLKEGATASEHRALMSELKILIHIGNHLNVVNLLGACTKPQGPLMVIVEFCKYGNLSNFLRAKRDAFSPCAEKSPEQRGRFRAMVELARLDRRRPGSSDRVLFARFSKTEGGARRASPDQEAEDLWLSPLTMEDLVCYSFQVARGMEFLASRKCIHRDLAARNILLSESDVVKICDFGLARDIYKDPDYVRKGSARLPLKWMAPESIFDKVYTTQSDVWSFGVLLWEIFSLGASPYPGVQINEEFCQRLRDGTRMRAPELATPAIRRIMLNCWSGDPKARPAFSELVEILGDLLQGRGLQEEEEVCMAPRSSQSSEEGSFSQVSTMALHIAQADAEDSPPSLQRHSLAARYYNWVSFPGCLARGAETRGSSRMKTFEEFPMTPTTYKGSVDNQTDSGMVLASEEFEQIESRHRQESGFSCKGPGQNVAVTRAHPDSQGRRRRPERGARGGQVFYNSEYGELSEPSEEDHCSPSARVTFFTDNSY
Protocol: as §1, §2, §5, §6, §7, §8

[5] = target: T5, PDGFR-beta (Homo sapiens, UniProt P09619); assay: as above; format: biochemical; conditions: for Inhibition of Kinases IC50 / IC50: PDGFR-beta, panel of 24 kinases, 1 μM ATP; for IC50: read-out: Inhibition of Kinases IC50
T5 construct: made in house; host or cells: Sf9 insect cells (baculovirus)
T5 sequence (P09619 33-1106): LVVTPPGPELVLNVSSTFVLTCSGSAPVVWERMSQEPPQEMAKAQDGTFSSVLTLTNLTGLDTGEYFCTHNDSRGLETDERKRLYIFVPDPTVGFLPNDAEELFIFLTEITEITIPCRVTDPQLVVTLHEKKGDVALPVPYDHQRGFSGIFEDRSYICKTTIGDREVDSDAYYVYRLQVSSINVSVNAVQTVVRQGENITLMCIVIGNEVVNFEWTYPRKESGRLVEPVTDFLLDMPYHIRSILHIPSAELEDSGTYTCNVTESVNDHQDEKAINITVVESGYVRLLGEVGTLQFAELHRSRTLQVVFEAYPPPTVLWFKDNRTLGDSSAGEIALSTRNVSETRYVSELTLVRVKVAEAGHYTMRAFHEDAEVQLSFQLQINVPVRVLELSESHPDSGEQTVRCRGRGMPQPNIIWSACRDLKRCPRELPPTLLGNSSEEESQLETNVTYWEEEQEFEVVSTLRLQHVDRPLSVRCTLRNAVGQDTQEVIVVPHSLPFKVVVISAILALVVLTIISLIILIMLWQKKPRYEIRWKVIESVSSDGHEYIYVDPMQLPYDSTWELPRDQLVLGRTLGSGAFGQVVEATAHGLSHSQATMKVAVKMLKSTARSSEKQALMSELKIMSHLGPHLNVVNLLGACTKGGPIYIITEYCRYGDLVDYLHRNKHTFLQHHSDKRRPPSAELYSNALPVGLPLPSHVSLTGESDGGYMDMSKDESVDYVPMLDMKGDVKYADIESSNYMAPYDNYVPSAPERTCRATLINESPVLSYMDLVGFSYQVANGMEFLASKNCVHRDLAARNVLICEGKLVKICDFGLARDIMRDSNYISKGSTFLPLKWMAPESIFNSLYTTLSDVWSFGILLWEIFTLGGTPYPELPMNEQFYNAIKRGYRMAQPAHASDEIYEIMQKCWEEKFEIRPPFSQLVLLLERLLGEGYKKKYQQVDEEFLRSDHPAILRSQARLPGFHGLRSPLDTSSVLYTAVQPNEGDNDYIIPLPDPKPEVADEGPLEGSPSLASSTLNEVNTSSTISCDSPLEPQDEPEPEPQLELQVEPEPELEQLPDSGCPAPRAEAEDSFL
Excerpt: as §2, §5, §6, §7, §8

[6] = target: T6, VEGF-R2 (Homo sapiens, UniProt P35968); assay: as above; format: biochemical; design: made in house; host or cells: Sf9 insect cells (baculovirus); conditions: for Inhibition of Kinases IC50 / IC50: panel of 24 kinases, 1 μM ATP; for IC50: read-out: Inhibition of Kinases IC50
T6 sequence (P35968 20-1356): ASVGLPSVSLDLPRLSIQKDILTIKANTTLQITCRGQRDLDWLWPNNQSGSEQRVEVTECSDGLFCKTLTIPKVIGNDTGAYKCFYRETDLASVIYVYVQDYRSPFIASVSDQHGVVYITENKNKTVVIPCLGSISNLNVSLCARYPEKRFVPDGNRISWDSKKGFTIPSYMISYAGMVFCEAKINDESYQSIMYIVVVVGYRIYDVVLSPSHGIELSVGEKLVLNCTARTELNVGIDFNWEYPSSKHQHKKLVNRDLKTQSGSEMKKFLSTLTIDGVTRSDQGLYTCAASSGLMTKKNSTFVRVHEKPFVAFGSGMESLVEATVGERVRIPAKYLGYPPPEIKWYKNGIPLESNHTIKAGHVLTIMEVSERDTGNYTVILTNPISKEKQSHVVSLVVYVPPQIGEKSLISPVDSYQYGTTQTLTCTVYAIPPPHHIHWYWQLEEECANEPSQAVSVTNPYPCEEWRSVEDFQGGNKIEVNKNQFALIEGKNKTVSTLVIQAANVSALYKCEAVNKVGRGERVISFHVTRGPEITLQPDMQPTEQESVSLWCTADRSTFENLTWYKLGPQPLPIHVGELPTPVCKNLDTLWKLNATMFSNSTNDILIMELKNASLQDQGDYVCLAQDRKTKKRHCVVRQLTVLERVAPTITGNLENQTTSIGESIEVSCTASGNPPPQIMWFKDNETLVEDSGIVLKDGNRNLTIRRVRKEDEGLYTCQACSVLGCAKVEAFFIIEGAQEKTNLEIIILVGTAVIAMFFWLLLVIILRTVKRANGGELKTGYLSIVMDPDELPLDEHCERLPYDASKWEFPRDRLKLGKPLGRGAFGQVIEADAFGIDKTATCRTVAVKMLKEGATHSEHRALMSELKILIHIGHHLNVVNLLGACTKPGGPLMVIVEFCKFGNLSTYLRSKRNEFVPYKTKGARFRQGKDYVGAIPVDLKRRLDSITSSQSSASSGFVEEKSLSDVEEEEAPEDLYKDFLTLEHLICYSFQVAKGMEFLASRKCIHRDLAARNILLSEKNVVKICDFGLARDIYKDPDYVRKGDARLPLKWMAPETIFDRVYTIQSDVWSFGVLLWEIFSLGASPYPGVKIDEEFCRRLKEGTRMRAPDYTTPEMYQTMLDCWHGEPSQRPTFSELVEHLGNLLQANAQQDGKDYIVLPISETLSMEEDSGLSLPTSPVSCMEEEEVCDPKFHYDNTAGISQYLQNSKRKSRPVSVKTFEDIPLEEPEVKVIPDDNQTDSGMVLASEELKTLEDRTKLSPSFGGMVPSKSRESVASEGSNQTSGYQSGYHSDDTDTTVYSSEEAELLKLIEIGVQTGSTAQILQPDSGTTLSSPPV
Protocol: as §1, §2, §5, §6, §7, §8

[7] = target: T7, B-RAF-VE (Homo sapiens, UniProt P15056, V600E); assay: as above; format: biochemical; conditions: panel of 24 kinases, 1 μM ATP, read-out: Inhibition of Kinases IC50
T7 construct: made in house; host or cells: Sf9 insect cells (baculovirus)
T7 sequence (P15056 whole entry V600E): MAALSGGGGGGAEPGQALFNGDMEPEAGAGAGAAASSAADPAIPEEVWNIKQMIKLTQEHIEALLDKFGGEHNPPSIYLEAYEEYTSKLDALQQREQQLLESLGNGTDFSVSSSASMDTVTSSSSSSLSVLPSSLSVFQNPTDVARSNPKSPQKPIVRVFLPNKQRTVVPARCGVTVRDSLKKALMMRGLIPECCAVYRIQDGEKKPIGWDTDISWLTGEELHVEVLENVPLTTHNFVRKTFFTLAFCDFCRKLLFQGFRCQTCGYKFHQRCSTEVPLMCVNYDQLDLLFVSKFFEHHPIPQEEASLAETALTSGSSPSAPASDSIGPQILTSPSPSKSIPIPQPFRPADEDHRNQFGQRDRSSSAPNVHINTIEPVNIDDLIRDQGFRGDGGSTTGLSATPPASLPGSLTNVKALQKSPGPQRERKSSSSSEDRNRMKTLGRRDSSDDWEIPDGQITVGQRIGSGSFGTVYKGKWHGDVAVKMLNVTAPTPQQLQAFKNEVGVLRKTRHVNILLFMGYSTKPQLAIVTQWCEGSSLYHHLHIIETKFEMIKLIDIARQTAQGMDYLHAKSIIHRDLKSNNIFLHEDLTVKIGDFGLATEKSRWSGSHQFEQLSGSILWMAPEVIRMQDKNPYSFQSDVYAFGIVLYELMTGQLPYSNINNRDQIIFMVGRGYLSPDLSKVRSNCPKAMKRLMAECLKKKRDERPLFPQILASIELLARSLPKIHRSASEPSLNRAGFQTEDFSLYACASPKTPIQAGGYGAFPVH
Protocol: as §1, §2, §3, §4

[8] = target: T8, MEK1 (Homo sapiens, UniProt Q02750); assay: panel of 127 kinases, radiometric protein kinase assay; format: biochemical; conditions: FIG. 1, result in words
T8 construct: made in house; host or cells: Sf9 insect cells (baculovirus)
T8 sequence (Q02750 whole entry): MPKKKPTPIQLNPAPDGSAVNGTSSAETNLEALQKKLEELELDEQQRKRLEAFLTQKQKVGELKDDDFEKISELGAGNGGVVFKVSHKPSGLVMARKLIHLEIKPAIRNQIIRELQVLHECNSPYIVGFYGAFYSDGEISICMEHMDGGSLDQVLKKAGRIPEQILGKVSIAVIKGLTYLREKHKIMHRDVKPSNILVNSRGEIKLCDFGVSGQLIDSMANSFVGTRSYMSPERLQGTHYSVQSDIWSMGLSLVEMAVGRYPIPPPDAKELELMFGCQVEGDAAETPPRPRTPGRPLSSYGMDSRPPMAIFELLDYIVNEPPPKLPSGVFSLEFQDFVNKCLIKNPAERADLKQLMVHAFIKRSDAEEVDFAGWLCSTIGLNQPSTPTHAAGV
Excerpt: as §2, §5, §6, §4, §8

[9] = target: T9, PDGFR-α (Homo sapiens, UniProt P16234); assay: as above; format: biochemical; conditions: FIG. 1, result in words
T9 construct: made in house; host or cells: Sf9 insect cells (baculovirus)
Excerpt: as §2, §5, §6, §4, §8

[10] = target: T6, VEGF-R2; assay: VEGF-R2 autophosphorylation in presence of VEGF165 in immortalized HUVECs (ELISA); format: cell-based; conditions: 90 min incubation, then VEGF165 for 7 min, read-out: cellular IC50, VEGF-R2 autophosphorylation
Protocol: The potential efficacy of Compound 31 in vivo was assessed by measuring the level of VEGF-R2 autophosphorylation in the presence of its ligand (VEGF165). Thus immortalized HUVECs known to express high levels of VEGF-R2 were incubated with inhibitor 31 for 90 min. and then stimulated with VEGF165 for 7 min. The level of autophosphorylation was measured by ELISA using antiVEGF-R2 as capture antibody and anti-phosphotyrosine as detection antibody. Results are expressed as percentage of maximal autophosphorylation in the absence of inhibitor (FIGS. 1 and 2).
A number of RALs such as pochonins C and D are substituted with a chlorine atom at the 5 position rather than a methoxy, as with analogue 31. […] The potential efficacy of this compound in vivo was then assessed by measuring the level of VEGF-R2 autophosphorylation in the presence of its ligand (VEGF165). […] The level of autophosphorylation was measured by ELISA using antiVEGF-R2 as capture antibody and anti-phosphotyrosine as detection antibody. Results are expressed as percentage of maximal autophosphorylation in the absence of inhibitor (FIG. 3).
The potential efficacy of compound 31 in vivo was assessed by measuring the level of VEGF-R2 autophosphorylation in the presence of its ligand (VEGF165). […] The level of autophosphorylation was measured by ELISA using antiVEGF-R2 as capture antibody and anti-phosphotyrosine as detection antibody. […]

[11] = target: PDGFR-β (Homo sapiens, UniProt P09619); assay: PDGFR-β autophosphorylation; format: cell-based; conditions: cellular autophosphorylation
PDGFR-β, sequence (P09619 33-1106, species assumed): as the sequence (P09619 33-1106) above

[12] = target: TIE2 (Homo sapiens, UniProt Q02763); assay: autophosphorylation of TIE2; format: cell-based; conditions: cellular autophosphorylation; result in words
[13] = panel of 127 kinases, FIG. 1, result in words

IC50 [1]: 9.1 µM
IC50 [2]: 9.6 µM
Inhibition of Kinases IC50 ([3]; listed as Radicicol A): potent inhibitory activity (low nM)
Inhibition of Kinases IC50 ([3]; listed as radicicol A): potent inhibitory activity
IC50 [3]: 0.11 µM
Inhibition of Kinases IC50 ([4]; listed as Radicicol A): potent inhibitory activity (low nM)
Inhibition of Kinases IC50 ([4]; listed as radicicol A): potent inhibitory activity
IC50 [4]: 0.066 µM
Inhibition of Kinases IC50 ([5]; listed as Radicicol A): potent inhibitory activity (low nM)
Inhibition of Kinases IC50 ([5]; listed as radicicol A): potent inhibitory activity
IC50 [5]: 0.21 µM
Inhibition of Kinases IC50 ([6]; listed as Radicicol A): potent inhibitory activity (low nM)
Inhibition of Kinases IC50 ([6]; listed as radicicol A): potent inhibitory activity
IC50 [6]: 0.026 µM
Compound: COc1cc(O)c2c(c1OC)/C=C/C[C@H](O)[C@H](O)C(=O)/C=C\C[C@H](C)OC2=O [Compound 1, Radicicol A]

IC50 [7]: 6.3 µM
Inhibition of Kinases IC50 [3]: potent inhibitory activity
IC50 [3]: 0.17 µM
Inhibition of Kinases IC50 [4]: potent inhibitory activity
IC50 [4]: 0.11 µM
Inhibition of Kinases IC50 [6]: potent inhibitory activity
IC50 [6]: 0.052 µM
Compound: COc1cc(O)c2c(c1)/C=C/C[C@H](O)[C@H](O)C(=O)/C=C\C[C@H](C)OC2=O [Compound 3, 5-Z-7-oxozeaenol]

Compound: COc1cc(O)c2c(c1Cl)/C=C/C[C@H](O)[C@H](O)C(=O)/C=C\C[C@H](C)OC2=O [Compound 31]
Inhibition of Kinases IC50 [3]: potent inhibitory activity
IC50 [3]: 1.8 µM
inhibitory activity (IC50) in a panel of 127 kinases [3, 13]: low micromolar concentrations; also recorded: low μM concentrations
Inhibition of Kinases IC50 [4]: potent inhibitory activity
IC50 [4]: 0.21 µM
inhibitory activity (IC50) in a panel of 127 kinases [4, 13]: nanomolar concentrations; also recorded: nM concentrations
Inhibition of Kinases IC50 [5]: potent inhibitory activity
IC50 [5]: 0.37 µM
inhibitory activity (IC50) in a panel of 127 kinases ([5]; PDGFR-β, panel of 127 kinases, FIG. 1, result in words): nanomolar concentrations; also recorded: nM concentrations
inhibitory activity (IC50) in a panel of 127 kinases [8]: nanomolar concentrations; also recorded: nM concentrations
inhibitory activity (IC50) in a panel of 127 kinases [9]: nanomolar concentrations; also recorded: nM concentrations
IC50 [10]: 0.44 µM
IC50 [11]: 13 µM
autophosphorylation of TIE2 [12]: unaffected
Inhibition of Kinases IC50 [6]: potent inhibitory activity
IC50 [6]: 0.09 µM
inhibitory activity (IC50) in a panel of 127 kinases [6, 13]: nanomolar concentrations; also recorded: nM concentrations
